Laboratory results as given in patent US9018258B2, “Substituted 1-benzylcycloalkylcarboxylic acids and the use thereof” (Bayer Intellectual Property GmbH, priority 2010, dated 2015).

Columns and labels:
[1] = target: T1, GAL4-PPARα (Homo sapiens, UniProt Q07869); assay: Cellular PPAR transactivation assay, GAL4-PPARα chimera in CHO-K1 cells; type: cell-based; details: for Emax: CHO-K1, maximum effect relative to reference compound (Example 73 of EP 1 452 521-A1 = 100%), read-out: PPARα efficacy; for EC50: CHO-K1 cells, luciferase reporter, 6 h stimulation
T1 construct: expressed in transfected cells
T1 sequence (Q07869 167-468): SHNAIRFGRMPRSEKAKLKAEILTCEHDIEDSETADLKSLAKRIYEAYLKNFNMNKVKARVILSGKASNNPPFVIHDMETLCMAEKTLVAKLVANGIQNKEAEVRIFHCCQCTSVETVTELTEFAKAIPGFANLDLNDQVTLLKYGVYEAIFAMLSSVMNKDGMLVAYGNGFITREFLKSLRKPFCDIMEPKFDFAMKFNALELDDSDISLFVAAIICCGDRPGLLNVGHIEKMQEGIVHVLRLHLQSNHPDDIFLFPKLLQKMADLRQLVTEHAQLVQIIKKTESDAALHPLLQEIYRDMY
Procedure, shortened: (§1)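 CHO-K1 cells stably expressing GAL4 DNA-binding domain fused to the human PPAR ligand-binding domain (α aa 167-468, γ aa 203-506, δ aa 138-442) plus a GAL4-driven firefly luciferase reporter. Compounds added in serum-free medium for 6 h; EC50 from luminescence curves. Efficacy in % of a pan-PPAR agonist reference set as 100%.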

[2] = tested on: saphenous artery; assay: Vasorelaxant effect in vitro (phenylephrine-contracted saphenous artery rings); design: species or system Rabbits; details: Oryctolagus cuniculus; rabbit saphenous artery rings, phenylephrine-induced contraction
Experimental: Rabbits are anaesthetized and sacrificed by intravenous injection of thiopental sodium (about 50 mg/kg) and exsanguinated. The saphenous artery is removed and divided into rings 3 mm wide. the rings are mounted singly on in each case a pair of triangular hooks open at the end and made of 0.3 mm-thick special wire (Remanium®). Each ring is placed under an initial tension in 5 ml organ baths with Krebs-Henseleit solution which is at 37° C., is gassed with carbogen and has the following composition: NaCl 119 mM; KCl 4.8 mM; CaCl2×2 H2O 1 mM; MgSO4×7 H2O 1.4 mM; KH2PO4 1.2 mM; NaHCO3 25 mM; glucose 10 mM; bovine serum albumin 0.001%. The force of contraction is detected with Statham UC2 cells, amplified and digitized via A/D converters (DAS-1802 HC, Keithley Instruments, Munich) and recorded in parallel on chart recorders. Contractions are induced by addition of phenylephrine.
After several (generally 4) control cycles, the substance to be investigated is added in each further run in increasing dosage, and the level of the contraction achieved under the influence of the test substance is compared with the level of the contraction reached in the last preceding run. The concentration necessary to reduce the contraction reached in the preceding control by 50% is calculated from this (IC50). The standard application volume is 5 μl. The proportion of DMSO in the bath solution corresponds to 0.1%.

[3] = target: T2, GAL4-PPARγ (Homo sapiens, UniProt P37231); assay: Cellular PPAR transactivation assay, GAL4-PPARγ chimera in CHO-K1 cells; type: cell-based; details: for Emax: CHO-K1, maximum effect relative to reference compound (Example 73 of EP 1 452 521-A1 = 100%), read-out: PPARγ efficacy; for EC50: CHO-K1 cells, luciferase reporter, 6 h stimulation
T2 construct: PPARγ (amino acids 203-506); expressed in transfected cells
T2 sequence (P37231 203-505 limits assumed): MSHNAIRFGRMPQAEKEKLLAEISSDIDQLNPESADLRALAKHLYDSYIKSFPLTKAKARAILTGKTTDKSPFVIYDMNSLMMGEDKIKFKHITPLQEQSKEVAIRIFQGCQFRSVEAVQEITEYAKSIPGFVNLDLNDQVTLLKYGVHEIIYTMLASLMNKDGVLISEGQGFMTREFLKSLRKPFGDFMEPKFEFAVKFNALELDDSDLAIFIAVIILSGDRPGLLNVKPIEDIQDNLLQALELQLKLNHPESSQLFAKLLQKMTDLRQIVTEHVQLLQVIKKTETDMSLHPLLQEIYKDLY
Procedure, shortened: as §1

[4] = target: T3, GAL4-PPARδ (Homo sapiens, UniProt Q03181); assay: Cellular PPAR transactivation assay, GAL4-PPARδ chimera in CHO-K1 cells; type: cell-based; details: for Emax: CHO-K1, maximum effect relative to reference compound (Example 73 of EP 1 452 521-A1 = 100%), read-out: PPARδ efficacy; for EC50: CHO-K1 cells, luciferase reporter, 6 h stimulation
T3 construct: PPARδ (amino acids 138-442); expressed in transfected cells
T3 sequence (Q03181 138-441 limits assumed): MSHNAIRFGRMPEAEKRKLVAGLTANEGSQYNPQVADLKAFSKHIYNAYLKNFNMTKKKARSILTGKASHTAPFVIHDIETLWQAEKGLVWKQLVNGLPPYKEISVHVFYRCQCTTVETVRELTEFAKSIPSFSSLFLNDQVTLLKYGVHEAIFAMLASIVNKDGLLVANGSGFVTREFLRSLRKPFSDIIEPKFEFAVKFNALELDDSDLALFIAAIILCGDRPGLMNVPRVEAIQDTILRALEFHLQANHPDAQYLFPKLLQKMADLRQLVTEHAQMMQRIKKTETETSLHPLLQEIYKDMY
Procedure, shortened: as §1

Emax [1] | EC50 [1] | IC50 [2] | Emax [3] | EC50 [3] | Emax [4] | EC50 [4] | Compound
0% | > 10 µM | 0.685 µM | 0% | > 10 µM | 0% | > 10 µM | CCOC(c1ccc(Cl)c(NC(=O)[C@H](c2ccc(Cl)cc2)[C@@H](C)C(F)(F)F)c1)C1(C(=O)O)CC1 (single isomer, unassigned) [Example 101]
0% | > 10 µM | – | 0% | > 10 µM | 0% | > 10 µM | [2H]C([2H])([2H])OC(c1ccc(Cl)c(NC(=O)[C@H](c2ccc(Cl)cc2)[C@@H](C)C(F)(F)F)c1)C1(C(=O)O)CC1 (single isomer, unassigned; (+)) [Example 99]
0% | > 10 µM | 0.606 µM | 20% | 2.3 µM | 0% | > 10 µM | C[C@H]([C@H](C(=O)Nc1cc(CC2(C(=O)O)CC2)ccc1Cl)c1ccc(Cl)c(F)c1)C(F)(F)F [Example 30, (+)-1-(4-chloro-3-{[(2S,3R)-2-(4-chloro-3-fluoro-phenyl)-4,4,4-trifluoro-3-methylbutanoyl]amino}-benzyl)cyclopropanecarboxylic acid]
0% | > 10 µM | 0.145 µM | 45% | 3 µM | 0% | > 10 µM | C[C@H]([C@H](C(=O)Nc1cc(CC2(C(=O)O)CC2)ccc1Cl)c1ccc(Cl)cc1)C(F)(F)F [Example 50, (+)-1-(4-Chloro-3-{[(2S,3R)-2-(4-chlorophenyl)-4,4,4-trifluoro-3-methylbutanoyl]amino}benzyl)-cyclopropanecarboxylic acid]
